What is called GI50 is the concentration giving 50% growth inhibition. Read a low GI50 as greater sensitivity of the cells.

The text below walks through data of ChEMBL document CHEMBL1146422, “Isolation and structure of the human cancer cell growth inhibitory cyclodepsipeptide dolastatin 16” (1997).

Each structure is given as a SMILES string. Values after ≈ are worked out from the molar mass of the structure shown. *1 amine or outer side, *2 acyl side, *3 side chain or, on linkers, in order; H or OH if unused. Where a SMILES comes first, the peptide text is derived from it. [ ]: non-standard residue; d: D form. X1 = CC(Cc1ccccc1)C(N[*:1])C(=O)[*:2]; X2 = CC(C)C(N[*:1])C(C)C(=O)[*:2]; dNMeV = CN[C@@H](C(=O)O)C(C)C; dHiv = CC(C)[C@@H](O)C(=O)O; Lac = C[C@H](O)C(=O)O

Common to all, as to format: functional
The test system of assay [1] is NCI-H460. The experiment in a line: Growth inhibition of human NCI-H460 cells.
For assay [2], the system named is KM-20L2. The experiment in a line: Growth inhibition of human KM20L2 cells.
For assay [3], the system named is SF-295. Description: Growth inhibition of human SF295 cells.
Assay [4] relates to SK-MEL-5. Description: Growth inhibition of human SK-MEL-5 cells.
Assay [5] concerns MCF7. The experiment in a line: Growth inhibition of human MCF7 cells.
Assay [6] concerns MDA-MB-435. The experiment in a line: Growth inhibition of human MDA-MB-435 cells.
Assay [7] has as its system MDA-N. The experiment in a line: Growth inhibition of human MDA-N cells.

As to `CC(C)C1NC(=O)[C@@H]2CCCN2C(=O)C(C(C)Cc2ccccc2)NC(=O)[C@@H]2CCCN2C(=O)[C@@H](C(C)C)N(C)C(=O)[C@@H](C(C)C)OC(=O)[C@@H]2CCCN2C(=O)[C@H](C)OC(=O)C1C` (some centres not stated) [DOLASTATIN 16] (cyclo([Lac]P[dHiv][dNMeV]P[X1]P[X2])), the GI50 was 0.96 ng/mL (≈ 1.09 nM) in assay [1]; 1.2 ng/mL (≈ 1.37 nM) in assay [2]; 5.2 ng/mL (≈ 5.92 nM) in assay [3]; 3.3 ng/mL (≈ 3.75 nM) in assay [4]; 47.9 nM in assay [5]; 34.7 nM in assay [6]. This molecule gave a GI50 in assay [7] of 28.8 nM.
